Ends that are not written are not given here. * marks the point of attachment. Myristoyl = CCCCCCCCCCCCCC(=O)*
Test: Permeabilization of DPPC liposomes containing glucose oxidase by phosphorylated dermatoxin (absorbance at 538 nm)
Assay type: biochemical
Procedure: DPPC liposomes containing 5 mg/mL glucose oxidase were prepared as described in Example 2. Glucose oxidase activity was measured in a coupled enzyme reaction with horseradish peroxidase as described in Example 2. The various solutions were quickly added to each of the wells of a microplate using a multichannel pipette and the reactions were started (at T=0 hours) with the addition to the wells of a solution containing glucose and 4-AAP.
The ability of the phosphorylated dermatoxin to open liposomes in the presence of phosphatase was tested by preparing a developing solution as described in Example 2. One hundred-fifty microliters of the developing solution was placed in each well of a 96-well microplate. To each column in the plate was added 20 μL of TES buffer containing one of the following concentrations of unpurified dermatoxin: 3.3 mg/mL, 3.3×10^−1 mg/mL, 3.3×10^−2 mg/mL, 3.3×10^−3 mg/mL, 3.3×10^−4 mg/mL, 3.3×10^−5 mg/mL, 3.3×10^−6 mg/mL, or 3.3×10^−7 mg/mL. Negative control wells contained TES buffer with no dermatoxin. Positive control wells buffer contained TES buffer with Triton X-100. Ten-microliter aliquots of the following concentrations of DPPC liposomes (containing 5 mg/mL glucose oxidase) were added to wells in duplicate rows: 0.1 mg lipid/mL, 0.02 mg lipid/mL, 0.004 mg lipid/mL, or plain buffer. To one of the duplicate rows was added 20 μL of 2.5 mg/mL alkaline phosphatase in TES. The other duplicate row received 20 μL of TES buffer. Thus the final dermatoxin concentration in the well varied from […], and the final lipid concentration in the well ranged from 0.005 mg lipid/mL to 2.0×10^−4 mg lipid/mL.
The absorbance was recorded at 538 nm on a SpectraMax M5 plate reader (Molecular Devices, Sunnyvale, Calif.) after two hours incubation at room temperature, and also after overnight incubation (approximately 18 hours). Since the absorbance of several wells was saturated, the overnight samples were diluted 1:10 with 50 mmol TES and the absorbance of the diluted samples was measured.

## SLGSFLKGVGTTLASVGKVVSDQFGKLLQAGQ (Myristoyl-SLGSFLKGVGTTLASVGKVVSDQFGKLLQAGQ; also: phosphorylated) [phosphorylated dermatoxin, fully phosphorylated dermatoxin, unpurified crude preparation]
18 hrs (d), 1:10-diluted sample, lipid conc. 0.004, dermatoxin mass 3.3 × 10^−9 mg, without phosphatase
  Absorbance at 538 nm (cytolytic peptide activity): 0.054 absorbance units
18 hrs (d), 1:10-diluted sample, lipid conc. 0.02, dermatoxin mass 3.3 × 10^−5 mg, with phosphatase
  Absorbance at 538 nm (cytolytic peptide activity): 0.262 absorbance units
18 hrs (d), 1:10-diluted sample, lipid conc. 0.02, dermatoxin mass 3.3 × 10^−5 mg, without phosphatase
  Absorbance at 538 nm (cytolytic peptide activity): 0.247 absorbance units
18 hrs (d), 1:10-diluted sample, lipid conc. 0.02, dermatoxin mass 3.3 × 10^−6 mg, with phosphatase
  Absorbance at 538 nm (cytolytic peptide activity): 0.231 absorbance units
18 hrs (d), 1:10-diluted sample, lipid conc. 0.02, dermatoxin mass 3.3 × 10^−6 mg, without phosphatase
  Absorbance at 538 nm (cytolytic peptide activity): 0.145 absorbance units
18 hrs (d), 1:10-diluted sample, lipid conc. 0.02, dermatoxin mass 3.3 × 10^−7 mg, with phosphatase
  Absorbance at 538 nm (cytolytic peptide activity): 0.084 absorbance units
18 hrs (d), 1:10-diluted sample, lipid conc. 0.02, dermatoxin mass 3.3 × 10^−7 mg, without phosphatase
  Absorbance at 538 nm (cytolytic peptide activity): 0.072 absorbance units
18 hrs (d), 1:10-diluted sample, lipid conc. 0.02, dermatoxin mass 3.3 × 10^−8 mg, with phosphatase
  Absorbance at 538 nm (cytolytic peptide activity): 0.075 absorbance units
18 hrs (d), 1:10-diluted sample, lipid conc. 0.02, dermatoxin mass 3.3 × 10^−8 mg, without phosphatase
  Absorbance at 538 nm (cytolytic peptide activity): 0.054 absorbance units
18 hrs (d), 1:10-diluted sample, lipid conc. 0.02, dermatoxin mass 3.3 × 10^−9 mg, with phosphatase
  Absorbance at 538 nm (cytolytic peptide activity): 0.072 absorbance units
18 hrs (d), 1:10-diluted sample, lipid conc. 0.02, dermatoxin mass 3.3 × 10^−9 mg, without phosphatase
  Absorbance at 538 nm (cytolytic peptide activity): 0.054 absorbance units
18 hrs (d), 1:10-diluted sample, lipid conc. 0.1, dermatoxin mass 3.3 × 10^−5 mg, with phosphatase
  Absorbance at 538 nm (cytolytic peptide activity): 1.045 absorbance units
18 hrs (d), 1:10-diluted sample, lipid conc. 0.1, dermatoxin mass 3.3 × 10^−5 mg, without phosphatase
  Absorbance at 538 nm (cytolytic peptide activity): 0.846 absorbance units
18 hrs (d), 1:10-diluted sample, lipid conc. 0.1, dermatoxin mass 3.3 × 10^−6 mg, with phosphatase
  Absorbance at 538 nm (cytolytic peptide activity): 0.785 absorbance units
18 hrs (d), 1:10-diluted sample, lipid conc. 0.1, dermatoxin mass 3.3 × 10^−6 mg, without phosphatase
  Absorbance at 538 nm (cytolytic peptide activity): 0.413 absorbance units
18 hrs (d), 1:10-diluted sample, lipid conc. 0.1, dermatoxin mass 3.3 × 10^−7 mg, with phosphatase
  Absorbance at 538 nm (cytolytic peptide activity): 0.095 absorbance units
18 hrs (d), 1:10-diluted sample, lipid conc. 0.1, dermatoxin mass 3.3 × 10^−7 mg, without phosphatase
  Absorbance at 538 nm (cytolytic peptide activity): 0.145 absorbance units
18 hrs (d), 1:10-diluted sample, lipid conc. 0.1, dermatoxin mass 3.3 × 10^−8 mg, with phosphatase
  Absorbance at 538 nm (cytolytic peptide activity): 0.076 absorbance units
18 hrs (d), 1:10-diluted sample, lipid conc. 0.1, dermatoxin mass 3.3 × 10^−8 mg, without phosphatase
  Absorbance at 538 nm (cytolytic peptide activity): 0.060 absorbance units
18 hrs (d), 1:10-diluted sample, lipid conc. 0.1, dermatoxin mass 3.3 × 10^−9 mg, with phosphatase
  Absorbance at 538 nm (cytolytic peptide activity): 0.075 absorbance units
18 hrs (d), 1:10-diluted sample, lipid conc. 0.1, dermatoxin mass 3.3 × 10^−9 mg, without phosphatase
  Absorbance at 538 nm (cytolytic peptide activity): 0.058 absorbance units
18 hrs, lipid conc. 0, dermatoxin mass 3.3 × 10^−5 mg, with phosphatase
  Absorbance at 538 nm (cytolytic peptide activity): 0.153 absorbance units
18 hrs, lipid conc. 0, dermatoxin mass 3.3 × 10^−5 mg, without phosphatase
  Absorbance at 538 nm (cytolytic peptide activity): 0.147 absorbance units
18 hrs, lipid conc. 0, dermatoxin mass 3.3 × 10^−6 mg, with phosphatase
  Absorbance at 538 nm (cytolytic peptide activity): 0.149 absorbance units
18 hrs, lipid conc. 0, dermatoxin mass 3.3 × 10^−6 mg, without phosphatase
  Absorbance at 538 nm (cytolytic peptide activity): 0.139 absorbance units
18 hrs, lipid conc. 0, dermatoxin mass 3.3 × 10^−7 mg, with phosphatase
  Absorbance at 538 nm (cytolytic peptide activity): 0.148 absorbance units
18 hrs, lipid conc. 0, dermatoxin mass 3.3 × 10^−7 mg, without phosphatase
  Absorbance at 538 nm (cytolytic peptide activity): 0.132 absorbance units
18 hrs, lipid conc. 0, dermatoxin mass 3.3 × 10^−8 mg, with phosphatase
  Absorbance at 538 nm (cytolytic peptide activity): 0.149 absorbance units
18 hrs, lipid conc. 0, dermatoxin mass 3.3 × 10^−8 mg, without phosphatase
  Absorbance at 538 nm (cytolytic peptide activity): 0.131 absorbance units
18 hrs, lipid conc. 0, dermatoxin mass 3.3 × 10^−9 mg, with phosphatase
  Absorbance at 538 nm (cytolytic peptide activity): 0.150 absorbance units
18 hrs, lipid conc. 0, dermatoxin mass 3.3 × 10^−9 mg, without phosphatase
  Absorbance at 538 nm (cytolytic peptide activity): 0.133 absorbance units
18 hrs, lipid conc. 0.004, dermatoxin mass 3.3 × 10^−5 mg, with phosphatase
  Absorbance at 538 nm (cytolytic peptide activity): 0.494 absorbance units
18 hrs, lipid conc. 0.004, dermatoxin mass 3.3 × 10^−5 mg, without phosphatase
  Absorbance at 538 nm (cytolytic peptide activity): 0.499 absorbance units
18 hrs, lipid conc. 0.004, dermatoxin mass 3.3 × 10^−6 mg, with phosphatase
  Absorbance at 538 nm (cytolytic peptide activity): 0.494 absorbance units
18 hrs, lipid conc. 0.004, dermatoxin mass 3.3 × 10^−6 mg, without phosphatase
  Absorbance at 538 nm (cytolytic peptide activity): 0.410 absorbance units
18 hrs, lipid conc. 0.004, dermatoxin mass 3.3 × 10^−7 mg, with phosphatase
  Absorbance at 538 nm (cytolytic peptide activity): 0.287 absorbance units
18 hrs, lipid conc. 0.004, dermatoxin mass 3.3 × 10^−7 mg, without phosphatase
  Absorbance at 538 nm (cytolytic peptide activity): 0.169 absorbance units
18 hrs, lipid conc. 0.004, dermatoxin mass 3.3 × 10^−8 mg, with phosphatase
  Absorbance at 538 nm (cytolytic peptide activity): 0.240 absorbance units
18 hrs, lipid conc. 0.004, dermatoxin mass 3.3 × 10^−8 mg, without phosphatase
  Absorbance at 538 nm (cytolytic peptide activity): 0.141 absorbance units
18 hrs, lipid conc. 0.004, dermatoxin mass 3.3 × 10^−9 mg, with phosphatase
  Absorbance at 538 nm (cytolytic peptide activity): 0.243 absorbance units
18 hrs, lipid conc. 0.004, dermatoxin mass 3.3 × 10^−9 mg, without phosphatase
  Absorbance at 538 nm (cytolytic peptide activity): 0.139 absorbance units
18 hrs, lipid conc. 0.02, dermatoxin mass 3.3 × 10^−5 mg, with phosphatase
  Absorbance at 538 nm (cytolytic peptide activity): 2.003 absorbance units
18 hrs, lipid conc. 0.02, dermatoxin mass 3.3 × 10^−5 mg, without phosphatase
  Absorbance at 538 nm (cytolytic peptide activity): 1.833 absorbance units
18 hrs, lipid conc. 0.02, dermatoxin mass 3.3 × 10^−6 mg, with phosphatase
  Absorbance at 538 nm (cytolytic peptide activity): 1.856 absorbance units
18 hrs, lipid conc. 0.02, dermatoxin mass 3.3 × 10^−6 mg, without phosphatase
  Absorbance at 538 nm (cytolytic peptide activity): 1.013 absorbance units
18 hrs, lipid conc. 0.02, dermatoxin mass 3.3 × 10^−7 mg, with phosphatase
  Absorbance at 538 nm (cytolytic peptide activity): 0.469 absorbance units
18 hrs, lipid conc. 0.02, dermatoxin mass 3.3 × 10^−7 mg, without phosphatase
  Absorbance at 538 nm (cytolytic peptide activity): 0.315 absorbance units
18 hrs, lipid conc. 0.02, dermatoxin mass 3.3 × 10^−8 mg, with phosphatase
  Absorbance at 538 nm (cytolytic peptide activity): 0.357 absorbance units
18 hrs, lipid conc. 0.02, dermatoxin mass 3.3 × 10^−8 mg, without phosphatase
  Absorbance at 538 nm (cytolytic peptide activity): 0.149 absorbance units
18 hrs, lipid conc. 0.02, dermatoxin mass 3.3 × 10^−9 mg, with phosphatase
  Absorbance at 538 nm (cytolytic peptide activity): 0.336 absorbance units
18 hrs, lipid conc. 0.02, dermatoxin mass 3.3 × 10^−9 mg, without phosphatase
  Absorbance at 538 nm (cytolytic peptide activity): 0.143 absorbance units
18 hrs, lipid conc. 0.1, dermatoxin mass 3.3 × 10^−5 mg, without phosphatase
  Absorbance at 538 nm (cytolytic peptide activity): 3.720 absorbance units
18 hrs, lipid conc. 0.1, dermatoxin mass 3.3 × 10^−6 mg, without phosphatase
  Absorbance at 538 nm (cytolytic peptide activity): 3.294 absorbance units
18 hrs, lipid conc. 0.1, dermatoxin mass 3.3 × 10^−7 mg, with phosphatase
  Absorbance at 538 nm (cytolytic peptide activity): 0.530 absorbance units
18 hrs, lipid conc. 0.1, dermatoxin mass 3.3 × 10^−7 mg, without phosphatase
  Absorbance at 538 nm (cytolytic peptide activity): 0.974 absorbance units
18 hrs, lipid conc. 0.1, dermatoxin mass 3.3 × 10^−8 mg, with phosphatase
  Absorbance at 538 nm (cytolytic peptide activity): 0.349 absorbance units
18 hrs, lipid conc. 0.1, dermatoxin mass 3.3 × 10^−8 mg, without phosphatase
  Absorbance at 538 nm (cytolytic peptide activity): 0.200 absorbance units
18 hrs, lipid conc. 0.1, dermatoxin mass 3.3 × 10^−9 mg, with phosphatase
  Absorbance at 538 nm (cytolytic peptide activity): 0.358 absorbance units
18 hrs, lipid conc. 0.1, dermatoxin mass 3.3 × 10^−9 mg, without phosphatase
  Absorbance at 538 nm (cytolytic peptide activity): 0.177 absorbance units
All wells except the highest concentration of the crude preparation
  Permeabilization of the liposomes in the presence versus absence of phosphatase: more permeabilization

Reference: US8936916B2, “Polypeptides for microbial detection” (3M Innovative Properties Company, priority 2008, dated 2015)
